Data taken from patent US11053239B2, “Compounds as BLC-2-selective apoptosis-inducing agents” (Fochon Pharmaceuticals, Ltd., priority 2017, dated 2021).
pIC50: −log10 of the molar value.

What was measured:
[1] = tested on: DOHH2 cells; test: Cell proliferation assay (MTS), DOHH2 cells; format: cell-based; conditions: Homo sapiens, DOHH-2, 120 h, DOHH2 (DSMZ ACC 47) cell proliferation, 5000 cells/well, 120 h, MTS; mechanism-based readout of Bcl-2 inhibition; read-out: DOHH2 IC50
Text: (§1) MTS testing kit was purchased from Promega. The RPMI-1640, Fetal bovine serum and Penicillin-Streptomycin were purchased from Gibco. Dimethyl sulfoxide (DMSO) was purchased from Sigma.
(§2) To investigate whether a compound is able to inhibit the activity of Bcl-2 in cells, a mechanism-based assay using DOHH2 (DSMZ No.® ACC 47) and RS4; 11 (ATCC® CRL-1873™) cell was developed. In this assay, inhibition of Bcl-2 was detected by the inhibition of DOHH2 and RS4; 11 cells proliferation. DOHH2 and RS4; 11 cells were cultured in culture flasks to 40-80% confluence in RPMI-1640 plus 10% fetal bovine serum. Cells were collected and plated onto 96-well plates at desired cell density (DOHH2: 5000 cells/well; RS4; 11: 30000 cells/well). Plates were incubated overnight at 37° C., with 5% CO2 to adhere. Compounds were added to the plates, and the final compound concentrations were 10000, 3333, 1111, […], 124, 41, 14, 4.6 and 1.5 nM. Plates plated with DOHH2 or RS4; 11 cells were placed at 37° C., with 5% CO2 for 120 h (DOHH2) or 72 h (RS4; 11) respectively. 20 μl MTS/100 μl medium mixture solution were added to each well and incubate the plates for exactly 2 hours. The reaction was stopped by adding 25 μl 10% SDS per well. Measure absorbance at 490 nm and 650 nm (reference wavelength). ICso was calculated using GraphPad Prism 5.0.

[2] = tested on: RS4; 11 cells; test: Cell proliferation assay (MTS), RS4; 11 cells; format: cell-based; conditions: Homo sapiens, RS4-11, 72 h, RS4; 11 (ATCC CRL-1873) cell proliferation, 30000 cells/well, 72 h, MTS; mechanism-based readout of Bcl-2 inhibition; read-out: RS4; 11 IC50
Text: as §1, §2

Structure (SMILES) | pIC50 [2] | pIC50 [1]
C[C@@H](CCN1CCS(=O)(=NC(=O)C2CC2)CC1)Nc1ccc(S(=O)(=O)NC(=O)c2ccc(N3CCN(CC4=C(c5ccc(Cl)cc5)CC(C)(C)CC4)CC3)cc2Oc2cnc3[nH]ccc3c2)cc1[N+](=O)[O-] [Example 83, (S)-2-((1H-pyrrolo[2,3-b]pyridin-5-yl)oxy)-4-(4-((4′-chloro-5,5-dimethyl-3,4,5,6-tetrahydro-[1,1′-biphenyl]-2-yl)methyl)piperazin-1-yl)-N-((4-((4-(1-((cyclopropanecarbonyl)imino)-1-oxido-1λ^6-thiomorpholino)butan-2-yl)amino)-3-nitrophenyl)sulfonyl)benzamide] | 7.74 | 7.33
CC1(C)CCC(CN2CCN(c3ccc(C(=O)NS(=O)(=O)c4ccc(NCC5CCC(N=S6(=O)CCOCC6)CC5)c(S(=O)(=O)C(F)(F)F)c4)c(Oc4cnc5[nH]ccc5c4)c3)CC2)=C(c2ccc(Cl)cc2)C1 (stereo not shown) [Example 55, 2-((1H-pyrrolo[2,3-b]pyridin-5-yl)oxy)-4-(4-((4′-chloro-5,5-dimethyl-3,4,5,6-tetrahydro-[1,1′-biphenyl]-2-yl)methyl)piperazin-1-yl)-N-((4-(((4-((4-oxido-1,4λ^6-oxathian-4-ylidene)amino)cyclohexyl)methyl)amino)-3-((trifluoromethyl)sulfonyl)phenyl)sulfonyl) benzamide] | 6.64 | 6.46
C[C@@H](CN1CCS(=O)(=NC#N)CC1)Nc1ccc(S(=O)(=O)NC(=O)c2ccc(N3CCN(CC4=C(c5ccc(Cl)cc5)CC(C)(C)CC4)CC3)cc2Oc2cnc3[nH]ccc3c2)cc1[N+](=O)[O-] [Example 6, (S)-2-((1H-pyrrolo[2,3-b]pyridin-5-yl)oxy)-4-(4-((4′-chloro-5,5-dimethyl-3,4,5,6-tetrahydro-[1,1′-biphenyl]-2-yl)methyl)piperazin-1-yl)-N-((4-((1-(1-(cyanoimino)-1-oxido-1λ^6-thiomorpholino)propan-2-yl)amino)-3-nitrophenyl)sulfonyl)benzamide] | 7.44 | 6.82
CCC(=O)N=S1(=O)CCN(C[C@H](C)Nc2ccc(S(=O)(=O)NC(=O)c3ccc(N4CCN(CC5=C(c6ccc(Cl)cc6)CC(C)(C)CC5)CC4)cc3Oc3cnc4[nH]ccc4c3)cc2[N+](=O)[O-])CC1 [Example 65, (S)-2-((1H-pyrrolo[2,3-b]pyridin-5-yl)oxy)-4-(4-((4′-chloro-5,5-dimethyl-3,4,5,6-tetrahydro-[1,1′-biphenyl]-2-yl)methyl)piperazin-1-yl)-N-((3-nitro-4-((l-(1-oxido-1-(propionylimino)-1λ^6-thiomorpholino)propan-2-yl)amino)phenyl)sulfonyl) benzamide] | 7.96 | 7.51
CC(=O)N=S1(=O)CCN(CC[C@H](C)Nc2ccc(S(=O)(=O)NC(=O)c3ccc(N4CCN(CC5=C(c6ccc(Cl)cc6)CC(C)(C)CC5)CC4)cc3Oc3cnc4[nH]ccc4c3)cc2[N+](=O)[O-])CC1 [Example 80] | 7.33 | 7.02
CN=S1(=O)CCN(CC[C@H](C)Nc2ccc(S(=O)(=O)NC(=O)c3ccc(N4CCN(CC5=C(c6ccc(Cl)cc6)CC(C)(C)CC5)CC4)cc3Oc3cnc4[nH]ccc4c3)cc2[N+](=O)[O-])CC1 [Example 94, (S)-2-((1H-pyrrolo[2,3-b]pyridin-5-yl)oxy)-4-(4-((4′-chloro-5,5-dimethyl-3,4,5,6-tetrahydro-[1,1′-biphenyl]-2-yl)methyl)piperazin-1-yl)-N-((4-((4-(1-(methylimino)-1-oxido-1λ^6-thiomorpholino)butan-2-yl)amino)-3-nitrophenyl)sulfonyl) benzamide] | 7.57 | 7.82
COC(=O)N=S1(=O)CCN(CC[C@H](C)Nc2ccc(S(=O)(=O)NC(=O)c3ccc(N4CCN(CC5=C(c6ccc(Cl)cc6)CC(C)(C)CC5)CC4)cc3Oc3cnc4[nH]ccc4c3)cc2S(=O)(=O)C(F)(F)F)CC1 [Example 92, methyl (S)-(4-(3-((4-(N-(2-((1H-pyrrolo[2,3-b]pyridin-5-yl)oxy)-4-(4-((4′-chloro-5,5-dimethyl-3,4,5,6-tetrahydro-[1,1′-biphenyl]-2-yl)methyl)piperazin-1-yl)benzoyl)sulfamoyl)-2-((trifluoromethyl)sulfonyl)phenyl)amino)butyl)-1-oxido-1λ^6-thiomorpholin-1-ylidene) carbamate] | 6.96 | 7.28
CCN=S1(=O)CCN(C[C@H](C)Nc2ccc(S(=O)(=O)NC(=O)c3ccc(N4CCN(CC5=C(c6ccc(Cl)cc6)CC(C)(C)CC5)CC4)cc3Oc3cnc4[nH]ccc4c3)cc2[N+](=O)[O-])CC1 [Example 38, (S)-((1H-pyrrolo[2,3-b]pyridin-5-yl)oxy)-4-(4-((4′-chloro-5,5-dimethyl-3,4,5,6-tetrahydro-[1,1′-biphenyl]-2-yl)methyl)piperazin-1-yl)-N-((4-((1-(1-(ethylimino)-1-oxido-1λ^6-thiomorpholino)propan-2-yl)amino)-3-nitrophenyl)sulfonyl) benzamide] | 7.55 | 6.97
C[C@@H](CN1CCP(C)(=O)CC1)Nc1ccc(S(=O)(=O)NC(=O)c2ccc(N3CCN(CC4=C(c5ccc(Cl)cc5)CC(C)(C)CC4)CC3)cc2Oc2cnc3[nH]ccc3c2)cc1[N+](=O)[O-] [Example 17, (S)-2-((1H-pyrrolo[2,3-b]pyridin-5-yl)oxy)-4-(4-((4′-chloro-5,5-dimethyl-3,4,5,6-tetrahydro-[1,1′-biphenyl]-2-yl)methyl)piperazin-1-yl)-N-((4-((1-(4-methyl-4-oxido-1,4-azaphosphinan-1-yl)propan-2-yl)amino)-3-nitrophenyl)sulfonyl)benzamide] | 6.95 | 6.88

More lines, main results first:

pIC50 [2] | Structure (SMILES) | pIC50 [1]
7.40 | C[C@@H](CN1CCS(=O)(=NC2CC2)CC1)Nc1ccc(S(=O)(=O)NC(=O)c2ccc(N3CCN(CC4=C(c5ccc(Cl)cc5)CC(C)(C)CC4)CC3)cc2Oc2cnc3[nH]ccc3c2)cc1[N+](=O)[O-] [Example 39, (S)-2-((1H-pyrrolo[2,3-b]pyridin-5-yl)oxy)-4-(4-((4′-chloro-5,5-dimethyl-3,4,5,6-tetrahydro-[1,1′-biphenyl]-2-yl)methyl)piperazin-1-yl)-N-((4-((1-(1-(cyclopropylimino)-1-oxido-1λ^6-thiomorpholino)propan-2-yl)amino)-3-nitrophenyl)sulfonyl)benzamide] | 6.79
8.40 | CC1(C)CCC(CN2CCN(c3ccc(C(=O)NS(=O)(=O)c4ccc(NCC5CCC(N=S6(=O)CCOCC6)CC5)c([N+](=O)[O-])c4)c(Oc4cnc5[nH]ccc5c4)c3)CC2)=C(c2ccc(Cl)cc2)C1 (stereo not shown) [Example 54, 2-((1H-pyrrolo[2,3-b]pyridin-5-yl)oxy)-4-(4-((4′-chloro-5,5-dimethyl-3,4,5,6-tetrahydro-[1,1′-biphenyl]-2-yl)methyl)piperazin-1-yl)-N-((3-nitro-4-(((4-((4-oxido-1,4λ^6-oxathian-4-ylidene)amino)cyclohexyl)methyl)amino)phenyl)sulfonyl) benzamide] | 8.05
7.46 | CC1(C)CCC(CN2CCN(c3ccc(C(=O)NS(=O)(=O)c4ccc(NCC5CC(N=S(C)(C)=O)C5)c([N+](=O)[O-])c4)c(Oc4cnc5[nH]ccc5c4)c3)CC2)=C(c2ccc(Cl)cc2)C1 (stereo not shown) [Example 59, 2-((1H-pyrrolo[2,3-b]pyridin-5-yl)oxy)-4-(4-((4′-chloro-5,5-dimethyl-3,4,5,6-tetrahydro-[1,1′-biphenyl]-2-yl)methyl)piperazin-1-yl)-N-((4-(((3-((dimethyl(oxo)-λ^6-sulfanylidene)amino)cyclobutyl)methyl)amino)-3-nitrophenyl)sulfonyl)benzamide] | 7.09
6.67 | CC1(C)CCC(CN2CCN(c3ccc(C(=O)NS(=O)(=O)c4ccc(NCC5CCC(N=S6(=O)CCCC6)CC5)c(S(=O)(=O)C(F)(F)F)c4)c(Oc4cnc5[nH]ccc5c4)c3)CC2)=C(c2ccc(Cl)cc2)C1 (stereo not shown) [Example 64, 2-((1H-pyrrolo[2,3-b]pyridin-5-yl)oxy)-4-(4-((4′-chloro-5,5-dimethyl-3,4,5,6-tetrahydro-[1,1′-biphenyl]-2-yl)methyl)piperazin-1-yl)-N-((4-(((4-((1-oxidotetrahydro-1λ^6-thiophen-1-ylidene)amino)cyclohexyl)methyl)amino)-3-((trifluoromethyl)sulfonyl)phenyl)sulfonyl)benzamide] | 6.49
7.37 | CC1(C)CCC(CN2CCN(c3ccc(C(=O)NS(=O)(=O)c4ccc(NCC5CCS(=O)(=NC6CC6)CC5)c([N+](=O)[O-])c4)c(Oc4cnc5[nH]ccc5c4)c3)CC2)=C(c2ccc(Cl)cc2)C1 (stereo not shown) [Example 5, 2-((1H-pyrrolo[2,3-b]pyridin-5-yl)oxy)-4-(4-((4′-chloro-5,5-dimethyl-3,4,5,6-tetrahydro-[1,1′-biphenyl]-2-yl)methyl)piperazin-1-yl)-N-((4-(((1-(cyclopropylimino)-1-oxidohexahydro-1λ^6-thiopyran-4-yl)methyl)amino)-3-nitrophenyl)sulfonyl)benzamide] | 7.04
